{
  "source": "patent US11446352B2",
  "about": "“Compositions and methods for inhibiting tumor-induced immune suppression” (priority 2017, dated 2022)",
  "key": {"[1]": {"tested_on": "Hsp90 chaperoning machine", "experiment": "progesterone receptor (PR) refolding assay using reticulocyte lysate (RRL)", "type": "biochemical", "details": "10 μM EnnA", "excerpt": "(§1) The first bar indicates 100% folding activity of RRL without inhibitor. PR22 indicates the antibody without PR but with RRL and EnnA. PR represents the antibody (PR22) with PR but without RRL. All other samples have PR22, PR, and RRL without (first bar) or with increased concentration of EnnA. FIGS. 1C-1E are line graphs of cell survival versus EnnA concentration (μM) in breast cancer cell lines Hs578T (FIG. 1C), […] (FIG. 1D) and MDA-MB231 (FIG. 1E) upon treatment with EnnA for 48 and 72 h. […] PR alone (PR), antibody (PR22)+RRL, PR+RRL without inhibitor (RRL), PR+RRL with 1 μM 17-AAG (17AAG) PR+RRL with 10 μM BEAU or EnnA. FIGS. 1G-1I are autoradiographs of Western blots of cytosols from various cell lines treated with 17-AAG (1 μM) or EnnA (3 μM) with antibodies against the specified proteins. FIG. 1J is an autoradiograph showing EnnA causes autophagy in Hs578T and MDA-MB453 cell lines. FIGS. 1K-1N are electron microscopy micrographs showing autophagosomes and reduced mitochondria content in Hs578T cells treated with DMSO or EnnA. FIGS. 1O-1P are fluorescence micrographs showing EnnA causing reduced mitochondria content in Hs578T cells. FIGS. 1Q-1BB are fluorescence micrographs showing mitophagy in Hsp578T cells treated with EnnA as indicated by colocalization of the mitochondria marker Cox4 and the autophagy marker LC3BII.\nA cell-free high-throughput screen (HTS) platform based on the progesterone receptor (PR) using reticulocyte lysate (RRL) as a source of molecular chaperones was used to screen 175 natural products (Patwardhan C A, et al., J Biomol Screen (2014)). This assay captures the physiological steps of PR refolding by the Hsp90 chaperoning machine and measures the recovery of its hormone-binding activities after mild heat treatment. It has the ability to identify inhibitors as well as activators of the core components of the Hsp90 chaperoning machine (i.e., Hsp90, Hsp70, Hsp40, Hsp90/Hsp70 organizing protein (HOP), and p23), including compounds that target chaperone complexes as well as individual proteins."}, "[2]": {"tested_on": "Hs587T and MDA-MB-453 cell lines", "experiment": "autophagy, mitochondria content and mitophagy in treated cancer cells", "type": "cell-based, human", "excerpt": "as §1"}, "4T1 cells": {"tested_on": "4T1 cells", "experiment": "MTT cell proliferation assay", "type": "cell-based, murine", "details": "4T1, in vitro, 72 h", "excerpt": "(§2) FIGS. 2I-2K show FACS analysis of Hsp90β expression on the cell surface of E0771 cells treated with DMSO or EnnA. FIGS. 2L-2N show FACS analysis of the ratio of Hsp90α to Hsp90β expression on the cell surface of E0771 cells treated with DMSO or EnnA. FIGS. 2O-2Q show FACS analysis of Hsp90α expression on the cell surface of E0771 cells treated with DMSO or EnnA. FIG. 2R is a bar graph showing expression of Hsp90β on the surface of AT3 cells treated with DMSO or EnnA. FIG. 2S is a bar graph showing expression of Hsp90α on the surface of AT3 cells treated with DMSO or EnnA. FIGS. 2T-2X show FACS analysis of Hsp90β expression on the surface of E0771 tumor cells treated with mIgG, DMSO, or EnnA.\n(§3) The mechanism of action of EnnA appears to be different from that of 17-AAG. […] Further studies studies using murine breast cancer cells lines have shown that EnnA kills E0771, AT3, EMT6 and 4T1 in vitro (FIG. 2A-2D)."}, "AT3 cells [3]": {"tested_on": "AT3 cells", "experiment": "MTT cell proliferation assay", "type": "cell-based, murine", "details": "AT3, in vitro, 72 h", "excerpt": "as §2, §3"}, "E0771 cells [4]": {"tested_on": "E0771 cells", "experiment": "MTT cell proliferation assay", "type": "cell-based, murine", "details": "E0771, in vitro, 72 h", "excerpt": "as §2, §3"}, "EMT6 cells": {"tested_on": "EMT6 cells", "experiment": "MTT cell proliferation assay", "type": "cell-based, murine", "details": "EMT6, in vitro, 72 h", "excerpt": "as §2, §3"}, "E0771 murine cells": {"tested_on": "E0771 murine cells", "experiment": "autophagy in E0771 cells (fluorescence micrographs)", "type": "cell-based"}, "AT3 cells [5]": {"tested_on": "AT3 cells", "experiment": "Western blot of control and EnnA-treated cells", "type": "cell-based, murine", "details": "AT3, 0.5 μM EnnA", "experimental": "(§4) FIG. 3A-3B are autoradiographs of a Western blot showing expression of the indicated proteins in control (left lane) and 0.5 μM EnnA-treated (right lane) E0771 (FIG. 3A) and AT3 (FIG. 3B) cells. FIG. 3C is a graph showing FACS analysis of PD-L1 level in AT3 cells. FIGS. 3D-3K are graphs showing qPCR analysis of the mRNA level of cytokines TNFa (FIG. 3D), IL-6 (FIG. 3E), TGFb1 (FIG. 3F) and IL-10 (FIG. 3G), the chemokines S100a9 (FIG. 3J) and CCL3 (FIG. 3K), as well as PDL1 (FIG. 3H) and IDO (FIG. 3I). FIGS. 3L-3Q are micrographs of HEK293 cells transiently transfected with GFP-IDO fusion protein expressing or GFP alone plasmids for 24 h. Cells were then treated with 5 μM EnnA for 6 h and analyzed for green fluorescence and bright light. FIG. 3R is a line graph of μg/ml of tryptophan and its IDO-mediated product kynurenine using the previously reported HPLC-based assay."}, "E0771 cells [6]": {"tested_on": "E0771 cells", "experiment": "Western blot of control and EnnA-treated cells", "type": "cell-based, murine", "experimental": "as §4"}, "E0771 tumors": {"tested_on": "E0771 tumors", "experiment": "E0771 syngeneic tumor model in C57BL/6 immunocompetent mice", "type": "in vivo", "details": "for anti-tumor activity (tumor volume): C57BL/6, 10 mg/kg every other day", "experimental": "50,000 E0771 cells were surgically implanted in mammary fad pad of 10 C57BL/6 immunocompetent mice and 10 immunocompromised nude mice. 12 days after surgery, B6 and nude mice were divided into two groups each. the EnnA group was injected with 10 mg/kg of EnnA every other day, and the control group received a mixture of 15% DMSO and 20% cremophor in PBS.\n100,000 E0771 cells were surgically implanted in mammary fat pad of 20 mice. Ten days after surgery, mice were divided into two groups: the EnnA group was injected with 10 mg/kg of EnnA every other day, and the control group received a mixture of 15% DMSO and 20% cremophor in PBS."}},
  "data": [
    {"smiles": "CC[C@H](C)[C@H]1C(=O)O[C@H](C(C)C)C(=O)N(C)[C@@H]([C@@H](C)CC)C(=O)O[C@H](C(C)C)C(=O)N(C)[C@@H]([C@@H](C)CC)C(=O)O[C@H](C(C)C)C(=O)N1C", "note": "[EnnA, Enniatin A]", "values": [
      {"measurement": "level of Hsp90 in PR complexes", "setting": "[1]; protein complex analysis after PR reconstitution", "result": "reduces"},
      {"measurement": "accumulation of Hsp70-rich PR complexes", "setting": "[1]; protein complex analysis, 1 μM 17-AAG", "result": "does not induce"},
      {"measurement": "mitochondria content in cancer cells", "setting": "[2]; Hs578T cells", "result": "reduces"},
      {"measurement": "mitophagy", "setting": "[2]; Hs578T cells, Cox4 / LC3BII colocalization", "result": "induction of mitophagy"},
      {"measurement": "mode of cell death (apoptosis / autophagy)", "setting": "[2]; Hs587T and MDA-MB-453 cell lines", "result": "induces autophagy"},
      {"measurement": "IC50", "setting": "4T1 cells", "result": "~2.5", "unit": "µM"},
      {"measurement": "IC50", "setting": "AT3 cells [3]", "result": "5 to 10", "unit": "µM"},
      {"measurement": "IC50", "setting": "E0771 cells [4]", "result": "5 to 10", "unit": "µM"},
      {"measurement": "IC50", "setting": "EMT6 cells", "result": "~2.5", "unit": "µM"},
      {"measurement": "autophagy", "setting": "E0771 murine cells", "result": "induces autophagy"},
      {"measurement": "Hsp70 protein", "setting": "AT3 cells [5]", "result": "reduced"},
      {"measurement": "pAKT protein", "setting": "AT3 cells [5]", "result": "destabilizes"},
      {"measurement": "protein expression of Hsp40", "setting": "AT3 cells [5]", "result": "reduces"},
      {"measurement": "IDO protein level", "setting": "E0771 cells [6]; E0771 (FIG. 3A), 0.5 μM EnnA", "result": "severely reduced"},
      {"measurement": "Hsp70 protein", "setting": "E0771 cells [6]; E0771, 0.5 μM EnnA", "result": "slightly increased"},
      {"measurement": "pAKT protein", "setting": "E0771 cells [6]; E0771, 0.5 μM EnnA", "result": "destabilizes"},
      {"measurement": "protein expression of Hsp40", "setting": "E0771 cells [6]; E0771, 0.5 μM EnnA", "result": "reduces"},
      {"measurement": "effect on bodyweight or activities of mice", "setting": "E0771 tumors; 10 mg/kg every other day", "result": "No significant effect"},
      {"measurement": "anti-tumor activity (tumor volume)", "setting": "E0771 tumors; Example 3: 50,000 E0771 cells", "result": "powerful anti-tumor activity"},
      {"measurement": "anti-tumor activity (tumor volume)", "setting": "E0771 tumors; Example 4: 100,000 E0771 cells", "result": "powerful anti-tumor activity"}
    ]}
  ]
}
